From patent publication US20240316008A1, “TREATMENT OF SYSTEMIC IMMUNE ACTIVATION SYNDROMES” (TRANQUIS THERAPEUTICS, INC., priority 2020, published 2024)
Counter-ions that a name gives are not always drawn.

Assays:
ALS = settings: transgenic mouse model of ALS; cited from earlier work
IL-6 = IL-6 secretion from LPS-stimulated BV2 cells (ELISA); format: cell-based, murine; settings: BV-2 cells, concentration-response
Method: [1] First, 100 μl of supernatant from cell plate was removed and transferred to a dilution plate, followed by centrifugation of the dilution plate at 216×g for 10 minutes to remove particulates. The dilution plate was then either assayed immediately or aliquots were taken and stored at ≤−20° C.; repeated freeze-thaw cycles should be avoided. Mouse IL-6 Standard (500 pg/mL) served as the high standard, and the Calibrator Diluent RD5T served as the zero standard at 0 pg/ml. Assay Diluent RD1-14 (50 μl) was then added to the center of each well and mixed before and during its use. Then, 50 μl of standard, control, or sample was added to the center of each well, and covered with adhesive strip. The plate was then mixed for 1 minute and incubated for 2 hours at room temperature. Each well was then aspirated and washed by filling each well with wash buffer (400 ul) five times. After the last wash, the remaining Wash Buffer was removed by aspirating or decanting. Mouse IL-6 conjugate (100 ul) was then added to each well, covered with adhesive strip, incubated for 2 hours at room temperature, and washed and/or aspirated five times.
Substrate solution (100 ul) was then added to each well, incubated in the dark for 30 minutes at room temperature, followed by addition of 100 ul of Stop Solution and mixed. The optical density of each well was determined within 30 minutes by using a microplate reader set to 450 nm.

TNFα = TNFα release by LPS-stimulated BV2 cells (ELISA); format: cell-based, murine; settings: BV-2 cells, ELISA, concentration-response
Method: First, 100 μl of supernatant was removed from Cell Plate and transferred to a Dilution Plate, which was then centrifuged at 216×g for 10 minutes to remove particulates. The dilution plate was either assayed immediately or aliquots were taken and stored at stored at ≤−20° C.; repeated freeze-thaw cycles were avoided.
Next, a standard curve was prepared by first pipetting 900 ul of Calibrator Diluent RD5K into the 700 pg/mL tube, followed by 200 μl of the appropriate calibrator diluent in the remaining tubes. The stock solution was used to produce a dilution. The resulting tubes were then thoroughly mixed. The Mouse TNFα Standard (700 pg/mL) served as the high standard, and the Calibrator Diluent RD5T served as the zero standard at 0 pg/ml.
Assay Diluent RD1-63 (50 ul) was then added to the center of each well and mixed before and during its use. Then, 50 ul of either standard, control, or sample was added to the center of each well, and covered with adhesive strip. The plate was then mixed for 1 minute and incubated for 2 hours at room temperature.
Each well was then aspirated and washed by filling each well with Wash Buffer (400 ul) five times. After the last wash, the remaining Wash Buffer was removed by aspirating or decanting. TNFα […] conjugate (100 ul) was then added to each well, covered with adhesive strip, incubated for 2 hours at room temperature, and washed and/or aspirated five times.
Substrate solution (100 ul) was then added to each well, incubated in the dark for 30 minutes at room temperature, followed by addition of 100 μl of Stop Solution and mixed. The optical density of each well was determined within 30 minutes by using a microplate reader set to 450 nm.
Plates were read on a Spectrostar Nano machine with built-in MARS data analysis at […].
For TNFα ELISA, the BV-2 cells were very responsive to low concentrations of LPS. A concentration range of 0.1 ng/ml to 1,000 ng/ml was tested. 0.3 ng/ml LPS produced enough TNFα release (8-10 fold above background) from these cells after 22 hours stimulation without saturating the linear range of the ELISA detection system. If higher LPS concentrations are used for stimulating BV-2 cells, a […] is advised to stay within the linear range of the detection system. The current TNFα protocol uses 10,000 cells per well in 96 well plate. A cell count titration can optimize S/B ratio. Miniaturization from 96 well to 384 well is also feasible with this assay.
The TNFα ELISA assay is described in Example 5. The IL-6 assay is described below.

sepsis = experiment: Mouse model of sepsis / hyperinflammation (virus followed by LPS, as described in Wang); settings: mice, intravenous, various doses
Method: Briefly, mice are anesthetized with a ketamine/xylazine mixture. A virus, such as a coronavirus, influenza virus, rhinovirus, respiratory syncytial virus, metapneumovirus, adenovirus, or a boca virus, is administered. The virus may be administered intranasally dropwise.
Next, LPS diluted in a buffer, such as PBS, is injected intraperitoneally at specific doses.
To provide comparators for assessing the effects of TQS-168 and its analogs, groups of positive control mice are treated with one or more antibodies against pro-inflammatory cytokines of interest: anti-NK1.1 antibody (PK136; Bio X Cell) diluted in PBS is injected at 100 μg per injection (100 μL) retro-orbitally concurrently with each challenge; anti-IFNγ antibody (XMG1.2, Bio X Cell) is diluted in PBS and injected at 500 μg per injection (100 μL) retro-orbitally concurrently with each challenge; anti-IL6R (15A7.10 mg/kg; Bio X Cell), anti-TNFα (XT3.11, 500 μg per injection; Bio X Cell), anti-IFNαR (MAR1-5A3, 10 mg/kg; Bio X Cell), and anti-IL1β (B122, 500 μg per injection; Bio X Cell) are injected retro-orbitally. For a negative control, isotype antibody is injected retro-orbitally.
The pro-inflammatory cytokines can be measured using the ELISA assay described in Example 1.

[1] = test system: 12 human primary cell-based systems; settings: 5000 μM, comparator profile; cited from earlier work

| Structure (SMILES) | disease onset (ALS) | lifespan (ALS) | LPS-stimulated IL-6 secretion (IL-6) | LPS-stimulated TNFα secretion (TNFα) | circulating concentrations of pro-inflammatory cytokines (sepsis) | hyperinflammatory symptoms (sepsis) | T-cell proliferation, IgG, TNFα, and IL-8 [1] |
| --- | --- | --- | --- | --- | --- | --- | --- |
| CC(=O)N(O)CCCCCNC(=O)CCC(=O)N(O)CCCCCNC(=O)CCC(=O)N(O)CCCCCN [Deferoxamine, deferoxamine mesylate] | delay | extend | – | – | – | – | – |
| CC(C)(C)c1ccc(-c2nc3ccncc3[nH]2)cc1 [TQS-234] | – | – | decrease | decrease | – | – | – |
| CC(C)(C)c1ccc(-c2nc3c(F)cc(F)cc3[nH]2)cc1 [TQS-235] | – | – | decrease | decrease | effective in reducing | effective in reducing | – |
| CC(C)(C)c1ccc(-c2nc3cc(C(F)(F)F)ccc3[nH]2)cc1 [TQS-236] | – | – | decrease | decrease | – | – | – |
| CC(C)(C)c1cccc(-c2nc3c(F)cc(F)cc3[nH]2)c1 [TQS-237] | – | – | decrease | decrease | effective in reducing | effective in reducing | – |
| CC(C)(C)c1ccc(-c2cn3ccccc3n2)cc1 [TQS-238] | – | – | decrease | decrease | – | – | – |
| [2H]c1c([2H])c([2H])c2[nH]c(-c3ccc(C(C)(C)C)cc3)nc2c1[2H] [TQS-239] | – | – | decrease | decrease | – | – | – |
| CC(C)(C)c1ccc(-c2nc3c(F)c(F)c(F)cc3[nH]2)cc1 [TQS-240] | – | – | decrease | decrease | effective in reducing | effective in reducing | – |
| CN(C)C(=N)N=C(N)N [metformin, metformin hydrochloride] | – | – | – | – | – | – | inhibit |
